Our source for the EC50 values is ChEMBL document CHEMBL5726468, “Heterocyclic compounds and methods of use thereof” (2019).

Values joined by “and” are separate entries in the source; they are usually repeats but may differ in a detail not shown here. Equal entries are not always repeated.

One experiment in a line: Huh 7.5.1 ATPlite assay : This example demonstrates the EC50 and CC50 values against HCV according to the HCVcc-RLuc reporter assay described in Example 5 and the cytotoxicity using the Huh 7.5.1 ATPlite assay for compounds in accordance with an embodiment of the invention.
Settings: not given
(In general: In ATP-based viability assays light output follows the ATP content of the culture.)
In the case of `CC1OC(c2c(Cl)cccc2Br)=NC1CN1CCC(C(=O)NCCCN2C[C@H](C)C[C@H](C)C2)CC1` (stereo partly drawn), the EC50 – broadly, the concentration giving half of the maximal effect – is 178 nM and 386 nM.

Still in this experiment, the particulars now being: Huh-7.5.1.
The compound `Cc1cc(-c2nc(CN3CCC(C(=O)NCCCN4C[C@H](C)C[C@H](C)C4)CC3)co2)ccc1F` showed an EC50 of 38 nM.
Same read-out and setting: as for `Cc1ccccc1-c1nc(CN2CCC(C(=O)NCCCN3C[C@H](C)C[C@H](C)C3)CC2)c(C)s1`, the figure is 38 nM; as for `CCN(CC)CCCCNC(=O)C1CCN(CC2N=C(c3cc(OC)cc(OC)c3)OC2C)CC1` (stereo not drawn), 6550 nM; as for `COc1cccc(F)c1C1=NC(CN2CCC(C(=O)NCCCN3C[C@H](C)C[C@H](C)C3)CC2)C(C)O1` (stereo partly drawn), 455 nM.
For the compound `Cc1cccc(Cl)c1C1=NC(CN2CCC(C(=O)NCCCN3C[C@H](C)C[C@H](C)C3)CC2)C(C)O1` (stereo partly drawn), the EC50 was 14 nM.
On to `Cc1ccc(C2=NC(CN3CCC(C(=O)NCCCN4C[C@H](C)C[C@H](C)C4)CC3)C(C)O2)cc1` (stereo partly drawn), for which the EC50 worked out at 100 nM.
As for `CC1OC(c2ccc(Cl)c(Cl)c2)=NC1CN1CCC(C(=O)NCCCN2C[C@H](C)C[C@H](C)C2)CC1` (stereo partly drawn), the response was half-maximal at 13 nM (EC50).
Same read-out and setting: as for `CC1OC(c2c(Cl)cccc2Cl)=NC1CN1CCC(C(=O)NCCCN2C[C@H](C)C[C@H](C)C2)CC1` (stereo partly drawn), the figure is 221 nM; as for `CC1OC(c2ccc(Cl)cc2)=NC1CN1CCC(C(=O)NCCCN2C[C@H](C)C[C@H](C)C2)CC1` (stereo partly drawn), 110 nM; as for `Cc1ccccc1C1=NC(CN2CCC(C(=O)NCCCN3CCC(C)CC3)CC2)C(C)O1` (stereo not drawn), 400 nM.
`CC1OC(c2c(F)cccc2F)=NC1CN1CCC(C(=O)NCCCN2C[C@H](C)C[C@H](C)C2)CC1` (stereo partly drawn) had an EC50 of 624 nM.
On the same count and under the same terms, under `Cc1cc(C)c(C2=NC(CN3CCC(C(=O)NCCCN4C[C@H](C)C[C@H](C)C4)CC3)C(C)O2)c(C)c1` (stereo partly drawn) stands 190 nM.
In turn, `CC1OC(c2ccc(F)cc2)=NC1CN1CCC(C(=O)NCCCN2C[C@H](C)C[C@H](C)C2)CC1` (stereo partly drawn) gave an EC50 of 53 nM.
Turning to `C[C@@H]1C[C@H](C)CN(CCCNC(=O)C2CCN(Cc3oc(-c4cc(C(F)(F)F)cc(C(F)(F)F)c4)nc3C(F)(F)F)CC2)C1`, the EC50 worked out at 153 nM.
Regarding `CCc1ccccc1C1=NC(CN2CCC(C(=O)NCCCN3C[C@H](C)C[C@H](C)C3)CC2)C(C)O1` (stereo partly drawn), the response was half-maximal at 140 nM (EC50).
The same measure, in the same setting: as for `Cc1ccccc1-c1nc(CN2CCC[C@@H](C(=O)NCCCN3C[C@H](C)C[C@H](C)C3)C2)c(C)o1`, the figure is 304 nM.
Regarding `CC1CCCN(CCCNC(=O)C2CCN(Cc3oc(-c4cc(C(F)(F)F)cc(C(F)(F)F)c4)nc3C(F)(F)F)CC2)C1` (stereo not drawn), the response was half-maximal at 341 nM (EC50).
`CC1OC(c2c(F)cccc2Cl)=NC1CN1CCC(C(=O)NCCCN2C[C@H](C)C[C@H](C)C2)CC1` (stereo partly drawn) returned an EC50 of 334 nM.
Turning to `Cc1cc(C)cc(C2=NC(CN3CCC(C(=O)NCCCN4C[C@H](C)C[C@H](C)C4)CC3)C(C)O2)c1` (stereo partly drawn), the EC50 was determined as 36 nM.
Still for that read-out and setting: under `COc1cccc(Br)c1C1=NC(CN2CCC(C(=O)NCCCN3C[C@H](C)C[C@H](C)C3)CC2)C(C)O1` (stereo partly drawn) stands 213 nM.
On the same count and under the same terms, under `CC1OC(c2ccccc2Cl)=NC1CN1CCC(C(=O)NCCCN2C[C@H](C)C[C@H](C)C2)CC1` (stereo partly drawn) stands 86 nM.
`Cc1ccccc1C1=NC(CN2CCC(C(=O)NCCN3CCCCC3)CC2)C(C)O1` (stereo not drawn) yielded an EC50 of 1200 nM.
`Cc1ccccc1C1=NC(CN2CCC(C(=O)N3CCN(CCN(C)C)CC3)CC2)C(C)O1` (stereo not drawn) had an EC50 of 6100 nM.
On the same count and under the same terms, under `Cc1cccc(Cl)c1C1=NC(CN2CCC(C(=O)NCCCN3CCC(C)(C)CC3)CC2)C(C)O1` (stereo not drawn) stands 220 nM.
The same measure, in the same setting: as for `Cc1ccc(C2=NC(CN3CCC(C(=O)NCCCN4C[C@H](C)C[C@H](C)C4)CC3)C(C)O2)cc1C` (stereo partly drawn), the figure is 98 nM.
Compound `COc1cc(OC)cc(C2=NC(CN3CCC(C(=O)NCCCN4CC(C)CC(C)C4)CC3)C(C)O2)c1` (stereo not drawn) gave an EC50 of 680 nM.
`Cc1ccccc1-c1nc(CC2CCC[C@@H](C(=O)CCCCN3C[C@H](C)C[C@H](C)C3)C2)c(C)o1` (stereo partly drawn) displayed an EC50 of 410 nM.
